From patent publication US20250051337A1 (priority 2021, published 2025)

Legend:
STK4 [1] = molecular target: T1, STK4 (Homo sapiens (Human), UniProt Q13043); assay: ADP-Glo kinase assay, STK4; assay type: biochemical
Method in brief: (§1)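 Full-length recombinant human STK3 (50 ng) phosphorylated 250 μg/mL myelin basic protein, and full-length STK4 (50 ng) phosphorylated 300 μg/mL Axltide, both at 50 μM ATP; ADP formed detected by ADP-Glo. Three experiments, each in triplicate.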

STK3 [2] = molecular target: T2, STK3 (Homo sapiens (Human), UniProt Q13188); assay: ADP-Glo kinase assay, STK3; assay type: biochemical; conditions: ADP-Glo, 50 μM ATP; read-out: STK3 IC50
Method in brief: as §1

[3] = test system: phosphorylated MOB1 (Thr35) in HEK293 cells; assay: Western blot analysis of p-MOB1 in HEK293 cells; assay type: cell-based; conditions: 10 μM, 4 h, then H2O2 50 μM 2 h, vs DMSO
Description: Cells were harvested by pipetting, pelleted by centrifugation at 1400 rpm for 4 min, and lysed in RIPA buffer for 10 min at room temperature. The lysates were centrifuged at 12,000×g at room temperature (RT) for 10 min and the supernatants were recovered. Protein concentrations in the supernatants were determined using a BCA assay (Pierce/Thermo Scientific). Proteins were separated on NovexTM WedgeWellTM 4-20% Tris-Glycine Gels (Invitrogen; Carlsbad, CA, USA) and transferred to polyvinylidene difluoride (Trans-Blot® TurboTM Transfer Pack) membranes. […] Danvers. MA. USA). Blots were rinsed three times with TBST and then incubated in 5% nonfat milk containing horseradish peroxidase (HRP)-conjugated mouse anti-rabbit IgG secondary Ab (Cell Signaling Technology) for 1 h at RT. Blots were washed three times with TBST, developed using Pierce® ECL Western Blotting reagent, and imaged and analyzed using with ImageJ software. Quantitative data are expressed as the level of phosphorylated MOB1 normalized to total MOB1. To confirm that the cellular mechanism of action of our inhibitors was through inhibition of Hippo pathway signaling. […] Inhibition of STK3/4 in vitro and in vivo can produce decreased phosphorylation of the Hippo pathway adapter protein MOB1 at […].

STK3 [4] = molecular target: T2, STK3; assay: NanoBRET intracellular kinase assay, STK3; assay type: cell-based
Description: (§2) Full-length STK3, STK4, and LRRK2 kinase was cloned in-frame with a C-terminal NanoLuc-fusion (Promega: Madison, WI, USA) and the plasmid was transfected into HEK293T cells using FuGENE HD (Promega, E2312). […] After 2 h at 37° C. in a 5% CO2 atmosphere, NanoBRET NanoGlo Substrate+Extra-cellular NanoLuc Inhibitor (Promega, N2540) was added, and filtered luminescence was measured on a PHERAstar plate reader (BMG Labtech; Ortenberg, Germany) equipped with a lumi-nescence filter pair (450 nm BP filter (donor) and 610 nm LP filter (acceptor)).
(§3) This assay measured the apparent affinity of test compounds by competitive displacement of the NanoBRET™ tracer, reversibly bound to a NanoLuc® luciferase-kinase fusion in cells. To evaluate potential off-target activity of the inhibitors, the inhibition of LRRK2 in live cells by the STK3/4 inhibitors compounds described herein were measured. […] A 50 nM tracer and these compounds were added to cells and incubated for 2 h.

LRRK2 = LRRK2 (Homo sapiens (Human), UniProt Q5S007); assay: NanoBRET intracellular kinase assay, LRRK2; assay type: cell-based; conditions: transfected HEK293 cells, 2 h
Description: Full-length STK3, STK4, and LRRK2 kinase was cloned in-frame with a C-terminal NanoLuc-fusion (Promega: Madison, WI, USA) and the plasmid was transfected into HEK293T cells using FuGENE HD (Promega, E2312). After 20 h, transfected cells were mixed with inhibitors and 50 nM NanoBRET Kinase Tracer K10 (Promega) and reseeded at a density of 2× 10^5 cells/mL in Opti-Minimal Essential Medium (MEM) without phenol red (Life Technologies; Carlsbad, CA, USA) in 384-well plates (Greiner 781-207; Kremsmunster, Austria). After 2 h at 37° C. in a 5% CO2 atmosphere, NanoBRET NanoGlo Substrate+Extra-cellular NanoLuc Inhibitor (Promega, N2540) was added, and filtered luminescence was measured on a PHERAstar plate reader (BMG Labtech; Ortenberg, Germany) equipped with a lumi-nescence filter pair (450 nm BP filter (donor) and 610 nm LP filter (acceptor)).
To confirm cellular potency for compounds described herein, the […] were used to detect engagement of STK3 and STK4 in live cells using the NanoBRET™ intracellular kinase assay, marking the first report of a NanoBRET assay for STK3 and STK4. This assay measured the apparent affinity of test compounds by competitive displacement of the NanoBRET™ tracer, reversibly bound to a NanoLuc® luciferase-kinase fusion in cells. To evaluate potential off-target activity of the inhibitors, the inhibition of LRRK2 in live cells by the STK3/4 inhibitors compounds described herein were measured. Cultured HEK293 cells were either transfected with NanoLuc®-STK3 fusion vector, NanoLuc®-STK4 fusion, or with NanoLuc®-LRRK2 vector for 24 h. A 50 nM tracer and these compounds were added to cells and incubated for 2 h. These compounds tested in the assays decreased the NanoBRET™ signal for both STK3 and STK4 at varying potencies and confirming cellular target engagement of STK3/4.

[5] = In vivo plasma and liver concentrations, 20 mg/kg intraperitoneal; conditions: female, C57BL/6J, mouse, ip, 20 mg/kg
Description: All animal procedures were approved by the Sanford Burnham Prebys Medical Discovery Institute Institutional Animal Care and Use Committee and were performed according to the NIH guidelines for the Care and Use of Laboratory Animals. Adult female C57BL/6J mice were purchased from Jackson Laboratories and housed with free access to food and water on a 12 h light/dark cycle. Compounds were formulated in 5% DMSO, 10% Tween-80, and 85% H2O and injected intraperitoneally at 10 or 20 mg/kg. Blood samples were collected retro-orbitally at the indicated times and plasma was prepared by centrifugation. Livers were collected post mortem at the indicated times.
For quantification of compound, plasma samples were extracted with acetonitrile: water 4:1 with 0.1% formic acid containing indomethacin as an internal standard. Samples were centrifuged and the supernatants were diluted with acetonitrile: water and analyzed by LC-MS/MS using a Shimadzu Nexera X2 High-performance liquid chromatography (HPLC) (Shimadzu Scientific Instruments: Kyoto, Japan) coupled to an AB Sciex 6500 QTRAP (AB Sciex LLC: Toronto, Canada).
Adult female C57BL/6 mice (n=3/group) were intraperitoneally injected with vehicle or test compound (20 mg/kg), and blood samples and livers were collected at 30 min and 1 h post-injection, respectively. Plasma concentrations of all 13 compounds were >1.4 μM at 30 min after injection, and 10 compounds had liver concentrations >1.0 μM at 1 h after injection, as measured by LC-MS/MS, with particularly high plasma concentrations obtained with compounds 11 (15.9 μM), 16 (11.6 μM) and 105 (8.7 μM) (Table 5). To evaluate target engagement in vivo, the total and phosphorylated MOB1 levels in livers collected at 1 h post-injection was examined.
Tween 80 and water and were administered to mice by intraperitoneal injection. Blood samples and livers were collected at 30 min and 1 h post-dose, respectively. Plasma concentrations and relative pMOB1 levels were determined by LC-MS/MS and western blot analysis, respectively. (n=3).

STK3 [6] = molecular target: T2, STK3; assay: Thermal shift assay (ThermoFluor differential scanning fluorimetry); assay type: binding; conditions: read-out: ΔTm
Description: Temperature-dependent protein unfolding profiles were measured using a Real-Time PCR Mx3005p machine (Stratagene: San Diego, CA, USA). Data evaluation and melting temperature calculation were performed using Protein Thermal Shift™ Software v1.2.
To further evaluate binding of these compounds to STK3/4, differential scanning fluorimetry (protein thermal shift using ThermoFluor technology) assay was used to benchmark the capacity to stabilize the kinase domain. The melting temperature (Tm) of STK3 or STK4 was measured in the presence of vehicle (DMSO) or 6, 11 or 23.

[7] = test system: YAP/TAZ-TEAD activity (8×GTIIC-luciferase) in HEK293 cells; assay: YAP-TAZ-TEAD luciferase assay; assay type: cell-based; conditions: 10 μM, 48 h, vs DMSO
Description: 8×GTIIC-luciferase was a gift from Stefano Piccolo (Addgene plasmid #34615, http://n2t.net/addgene: 34615: RRID: Addgene_34615). HEK293 cells were transfected with 8×GTIIC-luciferase plasmid and control Renilla luciferase plasmid using jetPRIME transfection reagent (Polyplus-transfection RSA: New York, NY. USA) for 24 h and cultured in Dulbeco's Modified Eagle Media (DMEM) Glutamax supplemented with 10% Fetal Bovine Serum (FBS), antibiotic/antimycotic, and sodium pyruvate (Gibco. Thermo FisherScientific: Waltham. MA. USA). The transfected cells were treated with 10 μM compound in triplicate and incubated for 48 h at 37° C. Firefly and Renilla luminescence were detected with a Dual-Glo Luciferase Assay System (Promega #E2920) according to the manufacturer's recommendations. The ratio of firefly to Renilla luminescence was calculated for each well and normalized to the ratio in control cells incubated with DMSO.
STK3/4 can negatively regulate the activity of the YAP/TAZ-TEAD protein complex and, accordingly, inactivation of these kinases reduces the transcription of YAP/TAZ-TEAD target genes. […] The results confirmed the intracellular on-target activity of our potent compounds for inhibiting STK3 and STK4 activity and targeting gene expression in the Hippo signaling pathway.

STK4 [8] = molecular target: T1, STK4; assay: NanoBRET intracellular kinase assay, STK4; assay type: cell-based; conditions: transfected HEK293 cells, 2 h
Description: as §2, §3

[9] = test system: ULK1/2 and Aurora kinases; conditions: including inhibition of ULK1/2 and Aurora kinases; cited from earlier work
[10] = NanoBRET, transfected HEK293 cells, 2 h, read-out: STK3: IC50
[11] = ADP-Glo, 50 μM ATP, read-out: STK4 IC50

T2 sequence (Q13188 whole entry): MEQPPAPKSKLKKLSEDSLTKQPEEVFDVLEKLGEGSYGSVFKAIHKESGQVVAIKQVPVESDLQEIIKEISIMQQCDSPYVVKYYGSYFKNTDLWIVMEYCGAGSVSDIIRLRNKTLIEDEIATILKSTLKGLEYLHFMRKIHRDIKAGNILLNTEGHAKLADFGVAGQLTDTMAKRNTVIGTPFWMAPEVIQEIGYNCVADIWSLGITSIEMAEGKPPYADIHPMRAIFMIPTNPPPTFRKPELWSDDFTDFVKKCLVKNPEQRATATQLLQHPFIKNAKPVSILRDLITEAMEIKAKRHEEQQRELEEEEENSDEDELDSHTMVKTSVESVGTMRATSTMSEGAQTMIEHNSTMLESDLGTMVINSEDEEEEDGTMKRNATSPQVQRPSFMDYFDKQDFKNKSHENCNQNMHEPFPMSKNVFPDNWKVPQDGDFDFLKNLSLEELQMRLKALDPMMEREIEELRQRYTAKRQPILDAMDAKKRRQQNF
T1 sequence (Q13043 whole entry): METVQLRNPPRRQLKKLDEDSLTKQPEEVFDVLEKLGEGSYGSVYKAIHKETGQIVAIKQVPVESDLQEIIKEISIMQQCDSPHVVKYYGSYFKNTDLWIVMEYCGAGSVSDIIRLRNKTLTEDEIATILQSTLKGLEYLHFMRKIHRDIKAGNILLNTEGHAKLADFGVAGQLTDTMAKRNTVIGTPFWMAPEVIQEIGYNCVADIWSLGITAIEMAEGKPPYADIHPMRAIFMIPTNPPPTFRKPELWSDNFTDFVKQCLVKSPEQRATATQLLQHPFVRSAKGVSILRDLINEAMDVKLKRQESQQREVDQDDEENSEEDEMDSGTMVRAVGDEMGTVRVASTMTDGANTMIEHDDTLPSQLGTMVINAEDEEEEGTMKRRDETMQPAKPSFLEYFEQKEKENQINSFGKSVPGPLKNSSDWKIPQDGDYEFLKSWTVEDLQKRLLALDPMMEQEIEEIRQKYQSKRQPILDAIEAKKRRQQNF
Sequence of LRRK2 (Q5S007 whole entry, species assumed, the tested form may be a part): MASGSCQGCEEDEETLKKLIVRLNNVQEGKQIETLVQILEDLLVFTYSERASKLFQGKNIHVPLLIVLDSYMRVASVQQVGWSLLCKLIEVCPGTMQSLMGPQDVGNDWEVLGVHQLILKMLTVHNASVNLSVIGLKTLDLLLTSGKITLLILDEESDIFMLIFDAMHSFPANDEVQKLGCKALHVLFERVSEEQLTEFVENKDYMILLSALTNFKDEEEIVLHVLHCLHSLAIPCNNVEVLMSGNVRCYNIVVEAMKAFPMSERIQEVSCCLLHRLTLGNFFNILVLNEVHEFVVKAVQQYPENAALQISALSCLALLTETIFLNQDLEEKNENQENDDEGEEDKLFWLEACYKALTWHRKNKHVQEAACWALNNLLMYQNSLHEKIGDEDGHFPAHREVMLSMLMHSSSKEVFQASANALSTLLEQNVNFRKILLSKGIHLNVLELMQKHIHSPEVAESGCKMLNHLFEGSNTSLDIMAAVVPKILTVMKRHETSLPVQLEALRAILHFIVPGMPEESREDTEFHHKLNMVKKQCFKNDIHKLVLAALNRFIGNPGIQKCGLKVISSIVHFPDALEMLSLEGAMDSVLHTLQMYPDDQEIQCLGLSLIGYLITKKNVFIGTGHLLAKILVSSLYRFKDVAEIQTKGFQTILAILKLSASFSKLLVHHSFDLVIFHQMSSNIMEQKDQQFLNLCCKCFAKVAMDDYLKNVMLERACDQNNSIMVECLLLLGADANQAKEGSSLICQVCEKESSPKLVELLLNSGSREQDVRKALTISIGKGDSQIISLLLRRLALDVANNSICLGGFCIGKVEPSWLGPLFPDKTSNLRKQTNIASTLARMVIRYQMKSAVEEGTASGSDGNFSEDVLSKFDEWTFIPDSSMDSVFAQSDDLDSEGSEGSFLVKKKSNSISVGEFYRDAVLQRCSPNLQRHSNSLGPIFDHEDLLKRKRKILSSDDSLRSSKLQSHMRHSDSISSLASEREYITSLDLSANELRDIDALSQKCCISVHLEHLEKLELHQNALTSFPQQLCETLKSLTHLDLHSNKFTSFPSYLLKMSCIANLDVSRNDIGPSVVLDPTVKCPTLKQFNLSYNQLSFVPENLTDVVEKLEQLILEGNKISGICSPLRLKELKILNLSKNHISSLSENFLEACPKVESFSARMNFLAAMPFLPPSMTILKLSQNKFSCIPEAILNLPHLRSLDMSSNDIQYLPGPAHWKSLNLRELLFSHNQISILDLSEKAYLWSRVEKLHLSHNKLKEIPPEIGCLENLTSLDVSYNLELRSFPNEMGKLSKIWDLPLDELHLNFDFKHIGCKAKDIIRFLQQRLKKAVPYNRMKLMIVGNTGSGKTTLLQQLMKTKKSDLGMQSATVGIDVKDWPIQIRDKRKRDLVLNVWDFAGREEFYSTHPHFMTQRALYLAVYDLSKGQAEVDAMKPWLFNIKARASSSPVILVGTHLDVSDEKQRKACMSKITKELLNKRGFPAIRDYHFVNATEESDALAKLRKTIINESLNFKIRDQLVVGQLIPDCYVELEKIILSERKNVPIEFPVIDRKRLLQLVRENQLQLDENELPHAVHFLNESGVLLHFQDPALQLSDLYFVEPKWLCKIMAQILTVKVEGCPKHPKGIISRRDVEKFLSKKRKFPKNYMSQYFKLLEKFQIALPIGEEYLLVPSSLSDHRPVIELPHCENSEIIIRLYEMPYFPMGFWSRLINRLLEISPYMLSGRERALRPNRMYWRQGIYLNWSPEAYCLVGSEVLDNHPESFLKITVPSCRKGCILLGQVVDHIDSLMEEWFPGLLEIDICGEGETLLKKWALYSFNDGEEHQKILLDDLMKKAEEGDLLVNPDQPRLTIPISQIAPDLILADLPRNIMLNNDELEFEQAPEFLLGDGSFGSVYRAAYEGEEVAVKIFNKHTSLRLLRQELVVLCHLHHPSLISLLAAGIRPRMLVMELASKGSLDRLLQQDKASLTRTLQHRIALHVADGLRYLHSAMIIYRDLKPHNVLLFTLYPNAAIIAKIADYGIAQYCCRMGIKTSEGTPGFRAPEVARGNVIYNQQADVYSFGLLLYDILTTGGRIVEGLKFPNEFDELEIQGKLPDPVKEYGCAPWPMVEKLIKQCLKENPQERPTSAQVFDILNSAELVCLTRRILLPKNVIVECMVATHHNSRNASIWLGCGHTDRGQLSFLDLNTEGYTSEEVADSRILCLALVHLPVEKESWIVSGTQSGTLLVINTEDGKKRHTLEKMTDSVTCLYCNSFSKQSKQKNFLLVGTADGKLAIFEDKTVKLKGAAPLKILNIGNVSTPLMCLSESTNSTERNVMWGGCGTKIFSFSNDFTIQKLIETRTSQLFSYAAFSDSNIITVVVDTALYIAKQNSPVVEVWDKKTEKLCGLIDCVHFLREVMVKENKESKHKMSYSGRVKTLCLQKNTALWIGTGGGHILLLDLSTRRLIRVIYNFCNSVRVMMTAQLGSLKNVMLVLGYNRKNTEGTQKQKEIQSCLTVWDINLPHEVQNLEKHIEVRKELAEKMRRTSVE

In the case of `Cc1ccccc1-c1c[nH]c2ncnc(N3CCOCC3)c12` [Compound 2, 4-(5-(o-Tolyl)-7H-pyrrolo[2,3-d]pyrimidin-4-yl)morpholine], the IC50 (STK4 [1]) is reported as 1 to 5 µM, the IC50 (STK3 [2]) is reported as > 5 µM and the “relative expression level of phosphorylated MOB1” value (“relative expression level” below) [3] is reported as “significant reduction”.

For `Cc1cccc(-c2c[nH]c3ncnc(N4CCOCC4)c23)c1` [Compound 5, 4-(5-(m-Tolyl)-7H-pyrrolo[2,3-d]pyrimidin-4-yl)morpholine], the IC50 (STK3 [2]) was < 1 µM, the IC50 (STK3 [4]; [10]) was < 1 µM and the IC50 (LRRK2) was ≤ 1 µM. It also gave a concentration at 30 min [5] of 2.8 µM and a concentration at 1 h [5] of 7.3 µM.

For `Fc1cccc(-c2c[nH]c3ncnc(N4CCOCC4)c23)c1` [Compound 7, 4-(5-(3-Fluorophenyl)-7H-pyrrolo[2,3-d]pyrimidin-4-yl)morpholine], the IC50 (STK3 [2]) was < 1 µM, the ΔTm at 10 µM (STK3 [6]) was 8.4 °C and the IC50 (STK3 [4]; [10]) was < 1 µM. For the same compound, the IC50 (LRRK2) was ≤ 1 µM, the “YAP/TAZ-TEAD activity (luciferase reporter)” value [7] was “marked increase” and the concentration at 30 min [5] was 6 µM. For the same compound, the concentration at 1 h [5] was 14.9 µM.

For `Clc1cccc(-c2c[nH]c3ncnc(N4CCCCC4)c23)c1` [Compound 15, 5-(3-Chlorophenyl)-4-(piperidin-1-yl)-7H-pyrrolo[2,3-d]pyrimidine], the IC50 (STK3 [2]) was < 1 µM, the ΔTm at 10 µM (STK3 [6]) was 8.3 °C and the IC50 (STK3 [4]) was 1 to 5 µM. The “LRRK2: IC50” value (LRRK2) was “B (B: IC50 is >2000 nM and <1000 nM)”, the concentration at 30 min [5] was 3.7 µM and the concentration at 1 h [5] was 6.5 µM.

In the case of `CN(CCO)c1ncnc2[nH]cc(-c3cccc(Cl)c3)c12` [Compound 108, 2-((5-(3-chlorophenyl)-7H-pyrrolo[2,3-d]pyrimidin-4-yl)(methyl)amino)ethan-1-ol], the IC50 (STK4 [1]; [11]) is reported as < 1 µM, the IC50 (STK3 [2]) is reported as < 1 µM and the IC50 (STK3 [4]; [10]) is reported as < 1 µM. The IC50 (STK4 [8]) was < 1 µM, the “LRRK2: IC50” value (LRRK2) was “B (B: IC50 is >2000 nM and <1000 nM)” and the “relative expression level” value [3] was “significant reduction”. For the same compound, the concentration at 30 min [5] was 7.3 µM and the concentration at 1 h [5] was 0.9 µM.

With `OCCCNc1ncnc2[nH]cc(-c3cccc(Cl)c3)c12` [Compound 119, 3-((5-(3-chlorophenyl)-7H-pyrrolo[2,3-d]pyrimidin-4-yl)amino)propan-1-ol] the IC50 (STK3 [2]) was < 1 µM, the IC50 (STK3 [4]; [10]) was < 1 µM and the IC50 (LRRK2) was ≥ 2 µM. It also gave a concentration at 30 min [5] of 4.5 µM and a concentration at 1 h [5] of 0.003 µM.

With `CC(CO)CN(C)c1ncnc2[nH]cc(-c3cccc(Cl)c3)c12` (stereo not shown) [Compound 121, 3-((5-(3-chlorophenyl)-7H-pyrrolo[2,3-d]pyrimidin-4-yl)(methyl)amino)-2-methylpropan-1-ol] the IC50 (STK4 [1]; [11]) was < 1 µM, the IC50 (STK3 [2]) was < 1 µM and the IC50 (STK3 [4]; [10]) was < 1 µM. For the same compound, the IC50 (STK4 [8]) was < 1 µM, the IC50 (LRRK2) was ≥ 2 µM and the “relative expression level” value [3] was “significant reduction”. It also gave a concentration at 30 min [5] of 1.8 µM and a concentration at 1 h [5] of 0.006 µM.

For `CN1C(=O)c2sccc2N(C)c2nc(Nc3ccc(S(N)(=O)=O)cc3)ncc21` [XMU-MP-1], the “off-target activity in vitro” value [9] is listed as “notable off-target activity”.
